# Laboratory results reported in PMC10115881, “Disrupting the α-synuclein-ESCRT interaction with a peptide inhibitor mitigates neurodegeneration in preclinical models of Parkinson’s disease” (Nature Communications, 2023).
# What was measured:
# Flag-CHMP2B = assay: Co-immunoprecipitation of Flag-CHMP2B with GFP-peptides; assay type: cell-based; conditions: n = 3
# Method: HEK293T cells were co-transfected with Flag-tagged target protein, HA-tagged source protein, and GFP-tagged peptide or GFP. Cells were lysed 48 h after transfections with radioimmune precipitation assay buffer (50 mM Tris-HCl pH 7.4, 1% Nonidet P-40, 150 mM NaCl, 1 mM EDTA, 10 mM Na3VO4, 10 mM sodium pyrophosphate, 25 mM NaF, 1× protease inhibitor mixture (Sigma)) for 30 min at 4 °C and co-immunoprecipitated with Flag beads (Clontech). The resulting immunocomplexes were analyzed by immunoblot using the appropriate antibodies. Protein samples were separated using 4–20% Mini-PROTEAN Tris-glycine gels (Bio-Rad) transferred to PVDF membranes and blocked in 5% milk containing PBS-Tween-20 (0.1%) for 1 h. PVDF membranes were then incubated with specified primary antibodies followed by incubation with horseradish peroxidase-conjugated secondary antibodies (anti-mouse HRP-linked, Cell Signaling, catalog #7076, 1:5000; anti-rabbit HRP-linked, Cell Signaling, catalog #7074, 1:5000) and detected using enhanced chemiluminescence (GE Healthcare). HA antibodies were obtained from Santa Cruz (catalog #7392, 1:2000), GFP antibodies were purchased from Abcam (catalog #ab290, 1:2000), and Flag antibodies were purchased from Sigma (catalog #A8592, 1:1000).
# Parent HEK293 cells = assay: Cell Titer-Glo cell viability, parent cells; assay type: cell-based, human; conditions: for Cell viability: MG132 10 μM, 72 h; for cell viability effect of peptides: Supp Figure 1A;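 for cell viability effect of peptides: measured without MG132 proteasome inhibitor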
# Method: (§1) Oligonucleotides encoding the specific peptides were synthesized and individually cloned into the pLJM1 nGFP lentiviral vector. HEK293T cells were infected with individual constructs, and cell viability was assessed using Cell Titer-Glo luminescent assay (Promega) at 72 h post infection.
# (§2) Cells were trypsinized from subconfluent cultures as described earlier, suspended in culture media, and then seeded into triplicate wells of a 96-well plate (100 µl/well) at a density of 1.5 × 10^4 cells per well with standard culture conditions of 5% CO2 at 37 °C. Cells were infected with lentivirus expressing peptide at a MOI of 5 for 72 h or transfected with plasmid for 72 h. Cell Titer-Glo reagent was added to each well (30 µL), according to the manufacturer’s protocol and […].
# WT a-syn oligomers = assay: Luciferase PCA of WT a-syn oligomers; assay type: cell-based, human; conditions: for Oligomers %: WT oligomers, luciferase activity; for Effect on WT a-syn oligomers: luciferase PCA
# Method: as §1
# (§3) Tet-off HEK293 cells stably expressing split luciferase-a-syn constructs and tet-off parent HEK293 cell lines were maintained in DMEM supplemented with 10% FBS and 1% pen/strep/glutamine. […] Cells were trypsinized from subconfluent culture and seeded in a 96-well plate at a density of 15,000 cells per well. Cells were incubated overnight at 37 °C in 5% CO2. Cells were transfected with GFP-peptide plasmids. After 6 h of incubation, 20 µL of cell medium was transferred to a black flat-bottomed 96-well plate. Fifty microliters of Working solution (Pierce Gaussia-Firefly Luciferase Dual Assay Kit, Thermo Scientific, 16181) were added into each well containing cell medium. Immediately after adding the reagent, samples were read using a luminometer with a 480 nm filter.
# [1] = tested on: A53T a-syn expressing HEK293 cells; assay: Cell Titer-Glo cell viability, A53T a-syn expressing cells; assay type: cell-based, human; conditions: for cell viability effect of peptides: A53T a-syn, Supp Figure 1A; for Cell viability: A53T, MG132 10 μM, 72 h; for Effect of MIM motif peptides on cell viability in A53T a-syn expressing cells: Supp Figure 1H
# Summary of the method: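 HEK293 cells (1.5 × 10^4 per well, triplicate) were infected with peptide-expressing lentivirus at MOI 5 or transfected with plasmid for 72 h at 37 °C, 5% CO2. Viability was then measured with Cell Titer-Glo, […].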
# A53T a-syn oligomers = assay: Luciferase PCA of A53T a-syn oligomers; assay type: cell-based, human; conditions: for Effect on A53T a-syn oligomers: luciferase PCA, n=3
# Method: as §1, §3
# [2] = tested on: WT a-syn expressing HEK293 cells; assay: Cell Titer-Glo cell viability, WT a-syn expressing cells; assay type: cell-based, human; conditions: WT alpha-synuclein; for Cell viability: MG132 10 μM, 72 h; for cell viability effect of peptides: Supp Figure 1A;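 for cell viability effect of peptides: measured without MG132 proteasome inhibitor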
# Method: as §1, §2
# A53T a-syn = A53T a-syn protein level in HEK293 cells by immunoblot; assay type: cell-based, human
# Method: Infected or transfected cells were scraped from six-well dishes and lysed with lysis buffer (50 mM Tris-HCl pH 7.4, 1% Nonidet P-40, 150 mM NaCl, 1 mM EDTA, 1× protease inhibitor mixture (Sigma)) for 30 min at 4 °C. The insoluble pellet was removed following a 10,000 rpm spin for 5 min at 4 °C. Lysates were analyzed by SDS-PAGE/immunoblot using 4–20% Mini-PROTEAN Tris-glycine gels (Bio-Rad), transferred to polyvinylidene fluoride (PVDF) membranes, and blocked in 5% milk containing PBS-Tween-20 (0.1%) for 1 h. PVDF membranes were then incubated with specified primary antibodies followed by incubation with horseradish peroxidase-conjugated secondary antibodies (anti-mouse HRP-linked, Cell Signaling, catalog #7076, 1:5000; anti-rabbit HRP-linked, Cell Signaling, catalog #7074, 1:5000) and detected using enhanced chemiluminescence (GE Healthcare). Anti-a-syn antibody (clone 42) was obtained from BD Biosciences (catalog #610787, 1:1000). Anti-LAMP1 antibody was obtained from Abcam (catalog #ab24170, 1:500). Anti-beta-actin antibody was obtained from Cell Signaling (13E5) (catalog #4970, 1:1000). Anti-CD63 antibody was obtained from R&D Systems (catalog #MAB50482-SP, 1:1000).
Substance,Interaction with CHMP2B (Flag-CHMP2B),Cell viability (Parent HEK293 cells; replicate 1),Cell viability (Parent HEK293 cells; replicate 2),Cell viability (Parent HEK293 cells; replicate 3),cell viability effect of peptides (Parent HEK293 cells; replicate 1),cell viability effect of peptides (Parent HEK293 cells; replicate 2),cell viability effect of peptides (Parent HEK293 cells; replicate 3),Oligomers % (WT a-syn oligomers; column 1),Oligomers % (WT a-syn oligomers; column 2),Oligomers % (WT a-syn oligomers; column 3),Oligomers % (WT a-syn oligomers; column 4),Oligomers % (WT a-syn oligomers; column 5),Effect on WT a-syn oligomers (WT a-syn oligomers),cell viability effect of peptides ([1]; replicate 1),cell viability effect of peptides ([1]; replicate 2),cell viability effect of peptides ([1]; replicate 3),Cell viability ([1]; replicate 1),Cell viability ([1]; replicate 2),Cell viability ([1]; replicate 3),Effect of MIM motif peptides on cell viability in A53T a-syn expressing cells ([1]; replicate 1),other results
DEEIERQLKALG [PDpep1.3],interacted with Flag-CHMP2B,4900,4200,4500,13700,13400,13100,99.8279%,83.0465%,73.1497%,78.3132%,63.6833%,significant reduction in a-syn oligomers,15000,15800,15200,8500,9100,9000,8764,Effect on cell survival/viability ([1]; A53T a-syn cells): most prominent effects on cell survival; Effect of MIM motif peptides on cell viability in A53T a-syn expressing cells ([1]; replicate 2): 8800; Effect of MIM motif peptides on cell viability in A53T a-syn expressing cells ([1]; replicate 3): 8162; Effect on A53T a-syn oligomers (A53T a-syn oligomers): significant reduction in A53T a-syn oligomers; A53T a-syn oligomers as measured by luciferase activity (A53T a-syn oligomers; replicate 1): 222198; A53T a-syn oligomers as measured by luciferase activity (A53T a-syn oligomers; replicate 2): 195592; A53T a-syn oligomers as measured by luciferase activity (A53T a-syn oligomers; replicate 3): 221562; Cell viability ([2]; replicate 1): 5800; Cell viability ([2]; replicate 2): 5300; Cell viability ([2]; replicate 3): 6000; cell viability effect of peptides ([2]; replicate 1): 14300; cell viability effect of peptides ([2]; replicate 2): 13800; cell viability effect of peptides ([2]; replicate 3): 14100; Effect on A53T a-syn protein level (A53T a-syn): reduction in a-syn
"IPIQLKA [PDpep1, initial screen hit peptide IPIQLKA]",interacted with Flag-CHMP2B,3800,3900,4100,12300,12100,12500,91.6523%,79.1738%,70.9983%,79.1738%,65.4045%,significant reduction in a-syn oligomers,12800,14040,13200,5500,5200,5000,5748,Effect of MIM motif peptides on cell viability in A53T a-syn expressing cells ([1]; replicate 2): 5350; Effect of MIM motif peptides on cell viability in A53T a-syn expressing cells ([1]; replicate 3): 5562; Effect on A53T a-syn oligomers (A53T a-syn oligomers): significant reduction in A53T a-syn oligomers; A53T a-syn oligomers as measured by luciferase activity (A53T a-syn oligomers; replicate 1): 221224; A53T a-syn oligomers as measured by luciferase activity (A53T a-syn oligomers; replicate 2): 258154; A53T a-syn oligomers as measured by luciferase activity (A53T a-syn oligomers; replicate 3): 261396; Cell viability ([2]; replicate 1): 3500; Cell viability ([2]; replicate 2): 3600; Cell viability ([2]; replicate 3): 3700; cell viability effect of peptides ([2]; replicate 1): 12400; cell viability effect of peptides ([2]; replicate 2): 12300; cell viability effect of peptides ([2]; replicate 3): 12500; Effect on A53T a-syn protein level (A53T a-syn): reduction in a-syn
